In one series the test system is Sprague Dawley rats. Description: Toxicity study in rats, oral gavage, daily or 3 times/week for 2 weeks. The series is classed as in vivo. As to the method:
A study is carried out to assess the toxicity and toxicokinetics of 4,4,4-Trifluoro-N-[(1S)-2-[[(7S)-5-(2-hydroxyethyl)-6-oxo-7H-pyrido[2,3-d][3]benzazepin-7-yl]amino]-1-methyl-2-oxo-ethyl]butanamide in rats given oral gavage doses of 0, 1.3, or 4.3 mg/kg once daily for 2 weeks or 1, 3, 10, or 30 mg/kg 3 times/week for 2 weeks.
4,4,4-Trifluoro-N-[(1S)-2-[[(7S)-5-(2-hydroxyethyl)-6-oxo-7H-pyrido[2,3-d][3]benzazepin-7-yl]amino]-1-methyl-2-oxo-ethyl]butanamide is combined with a vehicle comprising 1% carboxymethylcellulose sodium, 0.25% polysorbate 80 and 0.05% Dow Corning® Antifoam 1510-US in purified water. Sprague Dawley CD®/IGS rats (crl:CD(SD)), International Genetic Standardization (IGS) 7-9 week old rats, 3/sex/group, Charles River Laboratories, Inc, are used for the study. Animals are fed ad libitum with 12 hours light, 12 hours dark cycle maintained in ventilated stainless-steel racks at an ambient temperature of 22.2+/[…] and relative humidity of 30% to 70%. The test compound is dosed according to Table 1. The test compound is administered by oral gavage in a volume of 10 mL/kg body weight. The duration of the study for all groups is 14 days.
Observations, at a minimum, for Groups 01, 06 and 07 are recorded daily before dosing, approximately one (1) hour postdose, and in the afternoon except afternoon observations are not recorded on weekends. Observations for Groups 02, 03, 04, and 05 are recorded beginning on Day 3. At a minimum, observations are recorded as described on dosing days. On non-dosing days, observations are recorded at approximately the same time as for groups receiving daily doses. Animals are weighed on Days 1, 3, 6, 10, and 14. Terminal body weights are collected at scheduled necropsy. Food consumption weights are recorded on Days 1, 3, 6, 10, and 14.

Another series deals with Dogs (beagle). Kind of series: Toxicity study in dogs, oral gavage, daily for 6 days or every other day for 3 doses. It is filed as in vivo, dog. As to conditions: for Survival: dogs. The method, then:
A study is carried out to assess the Toxicity and Toxicokinetics of 4,4,4-trifluoro-N-[(1S)-2-[[(7S)-5-(2-hydroxyethyl)-6-oxo-7H-pyrido[2,3-d][3]benzazepin-7-yl]amino]-1-methyl-2-oxo-ethyl]butanamide in dogs given oral gavage doses of 0 or 1.3 mg/kg once daily for 6 days or 0.3 or 3 mg/kg every other day for a total of 3 doses. 4,4,4-Trifluoro-N-[(1S)-2-[[(7S)-5-(2-hydroxyethyl)-6-oxo-7H-pyrido[2,3-d][3]benzazepin-7-yl]amino]-1-methyl-2-oxo-ethyl]butanamide is combined with a vehicle comprising 1% carboxymethylcellulose sodium, 0.25% polysorbate 80 and 0.05% Dow Corning® Antifoam 1510-US in purified water. Dogs (beagle), Covance Research Products, 1 animal/sex/group are fed daily (soon after dosing) and are fasted overnight prior to scheduled chemistry blood collections and necropsy. The test compound is administered by oral gavage in a volume of 2 mL/kg body weight. The duration of the study for all groups is 6 days.
Groups 01 and 04: At a minimum, observations are recorded daily before dosing, approximately 1 hour postdose, and in the afternoon, with the following exception: afternoon clinical observations are not recorded on weekends.
Groups 02 and 03: At a minimum, observations are recorded before dosing, approximately 1 hour postdose, and in the afternoon on Days 2 and 6; before dosing and approximately 1 hour postdose on Day 4; and at approximately the same times as Groups 01 and/or 04 on Days 3, 5, and 7.
Animals are weighed on Days 1 and 7.
A qualitative assessment of food consumption is made each day by visual estimation of the amount of food remaining (recorded in increments of 25%).
Groups 01 and 04: Blood samples are collected before dosing on Day 1 and on Day 7 (not dosed on Day 7).
Groups 02 and 03: Blood samples are collected before dosing on Days 1 and 6.
Urine samples are collected from all animals by cystocentesis at the scheduled necropsy.

Molecules are shown by their SMILES. Entries after “also recorded” stand apart in the source; their conditions may differ.

This note sets out measurements from patent US20190209581A1, “DOSAGE REGIMEN FOR TREATMENT OF SOLID TUMORS” (Eli Lilly and Company, priority 2016, published 2019).

Consider `C[C@H](NC(=O)CCC(F)(F)F)C(=O)N[C@@H]1C(=O)N(CCO)c2ncccc2-c2ccccc21` [Compound 1, 4,4,4-trifluoro-N-[(1S)-2-[[(7S)-5-(2-hydroxyethyl)-6-oxo-7H-pyrido[2,3-d][3]benzazepin-7-yl]amino]-1-methyl-2-oxo-ethyl]butanamide], for which the “Tolerability of once daily administration at same total weekly dose” value with Sprague Dawley rats (rat, in vivo) was “once daily administration is not tolerated”; in the series on Dogs (beagle) (dog, in vivo), “once daily administration is not tolerated”. The “Compound related toxicities, kidney” value in the series on Sprague Dawley rats (rat, in vivo, 10 mg/kg) is reported as “minimal to slight renal tubular degeneration”. Further, the “Gastrointestinal toxicity, daily versus three times/week at same total weekly dose” value is given as “more severe gastrointestinal toxicity with daily dosing compared to three times/week dosing” in the series with Sprague Dawley rats (rats, 1.3 mg/kg daily or 3 mg/kg three times/week, 4.3 mg/kg daily or 10 mg/kg three times/week) and “more severe gastrointestinal toxicity compared to three times/week dosing” in the series with Dogs (beagle) (dog, in vivo). Besides, the Survival result in the series on Sprague Dawley rats (rats, 2 of 3 female TK animals, daily doses of 1.3 mg/kg) is given as “euthanized on Day 10 due to poor condition”; in the series on Sprague Dawley rats (rats, TK animals, daily doses of 4.3 mg/kg) it was “found dead on Days 7, 8, or 10”; with Sprague Dawley rats (rats, all non-TK, male TK and 1 of 3 female TK animals, daily doses of 1.3 mg/kg) it was “survived until the scheduled study termination”; with Sprague Dawley rats (rats, all non-toxicokinetic animals, 30 mg/kg 3 times/week) it was “euthanized on Day 10 due to poor condition”; in the series with Sprague Dawley rats (rats, animals given daily doses of 4.3 mg/kg (other than TK)), “euthanized on Day 10 due to poor condition”; in the series on Sprague Dawley rats (rats, non-TK animals given ≤10 mg/kg and TK animals given ≤3 mg/kg 3 times/week), “survived until the scheduled study termination”. The Survival result with Sprague Dawley rats (rats, two of three TK animals, 10 mg/kg 3 times/week) is “euthanized on Day 10 due to poor condition and the remaining TK animal was found dead prior to the 48 hr TK time point on Day 16”; in the series with Dogs (beagle) (1.3 mg/kg daily) it was “euthanized following 6 daily doses due to poor condition”; in the series on Dogs (beagle) (0.3 or 3 mg/kg 3 times/week (Days 2, 4, and 6)), “survived until the scheduled termination; also recorded: survived until the scheduled necropsy”. Moreover, the Compound-related signs entry in the series on Dogs (beagle) (both, beagle, dog, in vivo, 1.3 mg/kg, 6 days) was “lateral recumbency and labored respiration for the female on Day 7, decreased activity for both animals on Days 6 and 7, and dehydration (decreased skin elasticity) for both animals on Day 7”; in the series with Dogs (beagle) (dog, in vivo, 0.3 mg/kg), “mucoid, and watery feces”; in the series with Dogs (beagle) (dog, in vivo, 3 mg/kg), “red (male only), mucoid, and watery (male only), feces”. The Food consumption entry in the series on Dogs (beagle) (dog, in vivo) is “Decreased food consumption also occurred in all compound-treated groups”. The Pathology findings result in the series with Dogs (beagle) (dog, in vivo, 0.3 mg/kg) was “adverse inflammatory changes in the large intestine and evidence of systemic inflammation”. Besides, the Intestinal changes result with Dogs (beagle) (dog, in vivo, 1.3 mg/kg) was “up to marked mucoid enteropathy with red fluid intestinal contents, erosion, ulceration, and mostly neutrophilic mixed inflammation”. In addition, the “Other symptoms (feces)” value in the series with Dogs (beagle) (dog, in vivo, 1.3 mg/kg) was “red, dark (female only), mucoid, and watery (female only), feces”.
